Assay results published in US8815893B2, “Hetarylaminonaphthyridines” (Merck Patent GmbH, priority 2010, dated 2014).

Legend:
[1] = test system: lung epithelial cell line Mv1Lu; experiment: Cellular assay for TGF-beta receptor I kinase inhibitors: elimination of TGF-beta-mediated growth inhibition (example 13); type: cell-based; conditions: 48 h; Mv1Lu cells, 1 ng/ml TGF-beta, 0.5% FCS, two days, Crystal Violet staining; read-out: TβR activity (example 13)
Method: Cellular Assay for Testing TGF-Beta Receptor I Kinase Inhibitors
As an example, the ability of the inhibitors to eliminate TGF-beta-mediated growth inhibition was tested. Cells of the lung epithelial cell line Mv1Lu were sown in a defined cell density in a 96-well microtiter plate and cultivated overnight under standard conditions. Next day, the medium was replaced by medium which comprises 0.5% of FCS and 1 ng/ml of TGF-beta, and the test substances were added in defined concentrations, generally in the form of dilution series with 5 fold steps. The concentration of the solvent DMSO was constant at 0.5%. After a further two days, Crystal Violet staining of the cells was carried out. After extraction of the Crystal Violet from the fixed cells, the absorption was measured spectrophotometrically at 550 nm. It could be used as a quantitative measure of the adherent cells present and thus of the cell proliferation during the culture.

[2] = biological target: T1, GST-ALK5 (Homo sapiens, UniProt P36897); experiment: In-vitro (enzyme) kinase assay, 384-well flashplate (example 14); type: biochemical; conditions: GST-ALK5, GST-SMAD2 substrate, 33P-ATP flashplate, 30° C. 45 min; IC50 classes; read-out: TβR activity (example 14)
T1 sequence (P36897 34-503): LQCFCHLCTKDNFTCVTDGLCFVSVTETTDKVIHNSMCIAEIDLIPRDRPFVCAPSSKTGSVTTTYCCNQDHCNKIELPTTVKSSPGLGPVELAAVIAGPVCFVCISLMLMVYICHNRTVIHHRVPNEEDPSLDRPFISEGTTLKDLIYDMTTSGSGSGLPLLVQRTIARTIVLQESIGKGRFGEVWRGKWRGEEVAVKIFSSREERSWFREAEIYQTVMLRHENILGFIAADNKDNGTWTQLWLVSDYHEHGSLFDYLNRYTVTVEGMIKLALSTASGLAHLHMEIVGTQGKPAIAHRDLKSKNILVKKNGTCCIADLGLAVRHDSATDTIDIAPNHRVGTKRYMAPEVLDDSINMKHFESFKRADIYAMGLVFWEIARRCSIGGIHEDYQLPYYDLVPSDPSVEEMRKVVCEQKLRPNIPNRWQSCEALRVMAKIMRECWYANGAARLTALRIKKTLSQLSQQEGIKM
Method: In-Vitro (Enzyme) Assay for Determination of the Efficacy of Inhibitors of the Inhibition of TGF-Beta-Mediated Effects
The kinase assay was carried out as 384-well flashplate assay. 31.2 nM of GST-ALK5, 439 nM of GST-SMAD2 and 3 mM of ATP (with 0.3 μCi of ^33P-ATP/well) were incubated in a total volume of 35 μl (20 mM of HEPES, 10 mM of MgCl2, 5 mM of MnCl2, 1 mM of DTT, 0.1% of BSA, pH 7.4) without or with test substance (5-10 concentrations) at 30° C. for 45 min. The reaction was stopped using 25 μl of 200 mM EDTA solution, filtered with suction at room temperature after 30 min, and the wells were washed with 3 times 100 μl of 0.9% NaCl solution. Radioactivity was measured in the TopCount. The IC50 values were calculated using RS1. Above and below, all temperatures were indicated in ° C.

| Compound | IC50 [1] [nM] | IC50 [2] [nM] |
| --- | --- | --- |
| CS(=O)(=O)Nc1cc(Nc2cc(-c3cc(Cl)ccc3F)nc3ncccc23)ccn1 [compound 74] | 1000 to 10000 | 100 to 1000 |
| CCN1CCC(CNc2cc(Nc3cc(-c4cc(F)ccc4F)nc4ncccc34)ncn2)CC1 [compound 141] | 100 to 1000 | < 100 |
| OCc1cnccc1Nc1cc(-c2cc(F)ccc2F)nc2ncccc12 [compound 78] | < 100 | < 100 |
| Cc1cccc(-c2cc(-n3nc(C)c4cnccc43)c3cccnc3n2)n1 [compound 77] | 1000 to 10000 | < 100 |
| Cc1cccc(-c2cc(Nc3ccnc(Cl)c3)c3cccnc3n2)n1 [compound 83] | 1000 to 10000 | 100 to 1000 |
| Cc1cccc(-c2cc(Nc3ccncc3CO)c3cccnc3n2)n1 [compound 81] | 100 to 1000 | < 100 |
| CN1CCN(c2nccc(Nc3cc(-c4cc(Cl)ccc4F)nc4ncccc34)n2)CC1 [compound 93] | > 10000 | > 10000 |
| CC(=O)Nc1cc(Nc2cc(-c3ccccc3F)nc3ncccc23)ncn1 [compound 88] | 100 to 1000 | < 100 |
| CN1CCC(C(=O)Nc2cc(Nc3cc(-c4ccccc4F)nc4ncccc34)ncn2)CC1 [compound 115] | 100 to 1000 | < 100 |
| O=c1c2cnccc2c(-c2cc(-c3cc(Cl)ccc3F)nc3ncccc23)cn1CCN1CCCC1 [compound 146] | 100 to 1000 | 100 to 1000 |
| CC(C)(C)OC(=O)NCC(=O)Nc1cc(Nc2cc(-c3cc(Cl)ccc3F)nc3ncccc23)ncn1 [compound 109] | < 100 | < 100 |
| CC(C)(N)CC(=O)Nc1cc(Nc2cc(-c3cc(F)ccc3F)nc3ncccc23)ncn1 [compound 107] | < 100 | < 100 |
| CN(C)c1cc(Nc2cc(-c3cc(Cl)ccc3F)nc3ncccc23)ncn1 [compound 121] | < 100 | < 100 |
| CCN1CCC(Nc2cc(Nc3cc(-c4cc(Cl)ccc4F)nc4ncccc34)ncn2)CC1 [compound 127] | 1000 to 10000 | 1000 to 10000 |
| Fc1ccc(Cl)cc1-c1cc(-n2ncc3cnccc32)c2cccnc2n1 [compound 73] | < 100 | < 100 |
| Fc1ccc(Cl)cc1-c1cc(Cc2ccncc2)c2cccnc2n1 [compound 75] | > 10000 | 1000 to 10000 |
| O=C(CCN1CCNCC1)Nc1cc(Nc2cc(-c3cc(Cl)ccc3F)nc3ncccc23)ncn1 [compound 102] | > 10000 | > 10000 |
| COC(=O)c1cc(Nc2cc(-c3cc(F)ccc3F)nc3ncccc23)ccn1 [compound 116] | > 10000 | 1000 to 10000 |
| Fc1ccc(F)c(-c2cc(-n3ccc4cnccc43)c3cccnc3n2)c1 [compound 129] | 100 to 1000 | < 100 |
| CN1CCC(NC(=O)c2cnccc2Nc2cc(-c3cc(Cl)ccc3F)nc3ncccc23)CC1 [compound 95] | < 100 | < 100 |
| CC(C)(C)C(=O)Nc1cc(Nc2cc(-c3cc(Cl)ccc3F)nc3ncccc23)ncn1 [compound 101] | 1000 to 10000 | 100 to 1000 |
| Cc1cc(-c2cc(Nc3cc(N(C)C)ncn3)c3cccnc3n2)c(C)o1 [compound 145] | > 10000 | > 10000 |
| CC(C)(C)OC(=O)NCCCC(=O)Nc1cc(Nc2cc(-c3cc(Cl)ccc3F)nc3ncccc23)ncn1 [compound 131] | < 100 | < 100 |
| O=c1[nH]cc(-c2cc(-c3cc(Cl)ccc3F)nc3ncccc23)c2ccncc12 [compound 140] | < 100 | < 100 |
| Cc1ccc(-c2cc(Nc3ccncc3)c3cccnc3n2)o1 [compound 123] | 100 to 1000 | 100 to 1000 |
| Fc1ccc(Cl)cc1-c1cc(Nc2cc(NC3CCCCC3)ncn2)c2cccnc2n1 [compound 124] | > 10000 | 1000 to 10000 |
| Fc1ccc(F)c(-c2cc(Nc3ccncc3)c3cccnc3n2)c1 [compound 13] |  | < 100 |
| CN1CCC(COc2cnccc2Nc2cc(-c3cc(Cl)ccc3F)nc3ncccc23)CC1 [compound 47] |  | < 100 |
